Test results from the NIST ThermoML archive (doi:10.1021/acs.jced.5b00948).
± gives the expanded uncertainty stated by the source.

Key:
[1] = wn = mass fraction of the nth substance listed; conditions: 298.15 K, 100 kPa, Liquid, Vibrating tube method
[2] = mn = molality of the nth substance listed, in mol/kg; conditions: 298.15 K, 100 kPa, Liquid, Alternating current cell with electrodes
[3] = refractive index (Na D-line) (dimensionless); wn = mass fraction of the nth substance listed; conditions: 298.15 K, 100 kPa, Liquid, Standard Abbe refractometry
[4] = refractive index (Na D-line) (dimensionless); conditions: 298.15 K; 100 kPa; Liquid; Standard Abbe refractometry

For `CCCCn1cc[n+](C)c1.N[C@@H](CCC(=O)O)C(=O)[O-]` [1-butyl-3-methylimidazolium (S)-2-amino-4-carboxybutanoate] + O, the mass density ([1]; w1 = 0.111) was 1022.7 ± 1 kg/m3, the mass density ([1]; w1 = 0.183) was 1038.8 ± 1 kg/m3 and the mass density ([1]; w1 = 0.273) was 1058.6 ± 1 kg/m3. The mass density ([1]; w1 = 0.353) was 1075.4 ± 1 kg/m3, the mass density ([1]; w1 = 0.42) was 1091 ± 1 kg/m3 and the mass density ([1]; w1 = 0.491) was 1105.2 ± 1 kg/m3. For the same compound, the mass density ([1]; w1 = 0.561) was 1122.2 ± 1 kg/m3, the mass density ([1]; w1 = 0.628) was 1136.6 ± 1 kg/m3 and the mass density ([1]; w1 = 0.717) was 1153.7 ± 1 kg/m3. For the same compound, the mass density ([1]; w1 = 0.773) was 1167.1 ± 1 kg/m3, the mass density ([1]; w1 = 0.836) was 1181.6 ± 1 kg/m3 and the mass density ([1]; w1 = 0.863) was 1185.8 ± 1 kg/m3. For the same compound, the electrical conductivity ([2]; m1 = 0.061) was 0.277 ± 0.0052 S/m, the electrical conductivity ([2]; m1 = 0.101) was 0.364 ± 0.0059 S/m and the electrical conductivity ([2]; m1 = 0.142) was 0.466 ± 0.0065 S/m. For the same compound, the electrical conductivity ([2]; m1 = 0.196) was 0.577 ± 0.0069 S/m, the electrical conductivity ([2]; m1 = 0.253) was 0.676 ± 0.0076 S/m and the electrical conductivity ([2]; m1 = 0.361) was 0.869 ± 0.0094 S/m. The electrical conductivity ([2]; m1 = 0.439) was 1.01 ± 0.011 S/m, the electrical conductivity ([2]; m1 = 0.541) was 1.13 ± 0.011 S/m and the electrical conductivity ([2]; m1 = 0.628) was 1.205 ± 0.012 S/m. The electrical conductivity ([2]; m1 = 0.715) was 1.27 ± 0.013 S/m, the electrical conductivity ([2]; m1 = 0.848) was 1.37 ± 0.014 S/m and the electrical conductivity ([2]; m1 = 0.963) was 1.431 ± 0.014 S/m. The refractive index ([3]; w1 = 0.05) was 1.3448 ± 0.0004, the refractive index ([3]; w1 = 0.103) was 1.3584 ± 0.0004 and the refractive index ([3]; w1 = 0.152) was 1.3724 ± 0.0004. The refractive index ([3]; w1 = 0.2) was 1.3838 ± 0.0004, the refractive index ([3]; w1 = 0.299) was 1.4025 ± 0.0004 and the refractive index ([3]; w1 = 0.377) was 1.4179 ± 0.0004. It also gave a refractive index ([3]; w1 = 0.492) of 1.4473 ± 0.0004 and a refractive index ([3]; w1 = 0.576) of 1.4684 ± 0.0004.
With `CCCCCCCC[n+]1ccn(C)c1.[Cl-]` [1-methyl-3-octylimidazolium chloride] + O the electrical conductivity ([2]; m1 = 0.03) was 0.245 ± 0.012 S/m, the electrical conductivity ([2]; m1 = 0.06) was 0.425 ± 0.011 S/m and the electrical conductivity ([2]; m1 = 0.124) was 0.712 ± 0.011 S/m. For the same compound, the electrical conductivity ([2]; m1 = 0.18) was 0.901 ± 0.011 S/m, the electrical conductivity ([2]; m1 = 0.242) was 1.03 ± 0.011 S/m and the electrical conductivity ([2]; m1 = 0.284) was 1.1 ± 0.011 S/m. It also gave an electrical conductivity ([2]; m1 = 0.319) of 1.123 ± 0.011 S/m, an electrical conductivity ([2]; m1 = 0.352) of 1.18 ± 0.012 S/m and an electrical conductivity ([2]; m1 = 0.389) of 1.204 ± 0.012 S/m. For the same compound, the electrical conductivity ([2]; m1 = 0.421) was 1.228 ± 0.012 S/m, the electrical conductivity ([2]; m1 = 0.48) was 1.26 ± 0.013 S/m and the electrical conductivity ([2]; m1 = 0.51) was 1.28 ± 0.013 S/m. The electrical conductivity ([2]; m1 = 0.541) was 1.301 ± 0.013 S/m.
Compound `O` [water] has a refractive index [4] of 1.3325 ± 0.0004.
